Source: a compilation of properties of binary mixtures (doi:10.1016/j.molliq.2022.121069)

Test: xn = mol fraction of the nth substance listed
Conditions: 101.3 kPa

CCCC[N+](CCCC)(CCCC)CCCC.[Cl-] + CNCCO
Conditions | speed of sound, x1 = 0.091 [m/s] | speed of sound, x1 = 0.111 [m/s] | speed of sound, x1 = 0.1441 [m/s] | viscosity, x1 = 0.091 [mPa·s] | viscosity, x1 = 0.111 [mPa·s] | viscosity, x1 = 0.1441 [mPa·s]
293.15 K | – | 1516.6 | 1521.4 | – | 34.4 | 47.4
298.15 K | – | – | 1505.8 | – | – | 34.3
303.15 K | 1482 | 1485.3 | – | 18.5 | 20.8 | –
308.15 K | 1466.3 | 1469.8 | – | 15.1 | 16.8 | –
313.15 K | 1450.5 | 1454.2 | – | 12.7 | 14.1 | –
318.15 K | – | 1438.9 | 1443.8 | – | 11.6 | 14.1
323.15 K | 1419.5 | 1423.6 | 1428.6 | 8.93 | 9.5 | 11.8
328.15 K | 1404.1 | – | 1413.5 | 7.38 | – | 10.3
333.15 K | 1388.5 | 1393.1 | 1398.5 | 6.48 | 6.5 | 9.58

CC[N+](CC)(CC)CC.[Cl-] + CNCCO
Conditions | speed of sound, x1 = 0.0914 [m/s] | speed of sound, x1 = 0.1114 [m/s] | speed of sound, x1 = 0.1413 [m/s] | viscosity, x1 = 0.0914 [mPa·s] | viscosity, x1 = 0.1114 [mPa·s] | viscosity, x1 = 0.1413 [mPa·s]
293.15 K | 1553.4 | 1565.5 | – | 20.5 | 21.9 | –
298.15 K | 1538 | 1550.1 | 1565.6 | 16.7 | 17.4 | 18.8
303.15 K | 1522.5 | – | 1550.1 | 13.5 | – | 15.2
308.15 K | – | 1519.5 | 1534.7 | – | 11.5 | 12.4
313.15 K | 1491.9 | 1504.6 | – | 9.57 | 10 | –
318.15 K | 1476.9 | 1489.4 | – | 7.92 | 8.35 | –
323.15 K | 1461.5 | – | – | 6.5 | – | –
328.15 K | – | 1458.8 | 1473.8 | – | 5.78 | 6.23
333.15 K | 1431 | 1444.6 | 1458.7 | 4.57 | 4.95 | 5.41
